Experimental data taken from article PMC3606911 (Journal of enzyme inhibition and medicinal chemistry, 2012).
“Also recorded” adds a separate entry of the source. Like-named read-outs stand apart in the source and are kept apart here.

What was measured:
FAAH [1] = details: cited from earlier work
COX isoform = details: cited from earlier work
[2] = test system: acetic acid-induced abdominal stretching; details: rats, 20 mg/kg i.p., cited from earlier work
FAAH [3] = biological target: T1, FAAH (Rattus norvegicus, UniProt P97612); test: FAAH assay: hydrolysis of [3H]AEA by rat brain homogenates; assay type: biochemical
T1 sequence (P97612 1-579): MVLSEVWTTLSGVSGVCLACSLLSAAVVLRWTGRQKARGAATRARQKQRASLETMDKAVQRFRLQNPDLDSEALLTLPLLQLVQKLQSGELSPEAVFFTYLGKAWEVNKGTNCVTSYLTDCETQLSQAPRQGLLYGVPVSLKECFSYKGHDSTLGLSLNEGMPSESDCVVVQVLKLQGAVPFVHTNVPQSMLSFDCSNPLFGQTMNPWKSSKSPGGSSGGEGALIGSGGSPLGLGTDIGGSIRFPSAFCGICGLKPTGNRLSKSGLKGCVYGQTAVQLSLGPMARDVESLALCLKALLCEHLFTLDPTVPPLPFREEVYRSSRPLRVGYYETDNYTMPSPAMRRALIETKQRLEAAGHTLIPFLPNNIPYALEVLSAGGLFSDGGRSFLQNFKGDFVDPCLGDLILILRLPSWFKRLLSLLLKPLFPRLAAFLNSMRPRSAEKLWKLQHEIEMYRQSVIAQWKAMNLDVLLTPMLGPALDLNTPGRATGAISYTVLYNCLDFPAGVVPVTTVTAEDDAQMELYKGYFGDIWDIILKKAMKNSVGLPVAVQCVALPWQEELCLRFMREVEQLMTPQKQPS

ovine COX-1 = biological target: T2, ovine COX-1 (Ovis aries, UniProt P05979); test: COX oxygen electrode assay, COX-1; assay type: biochemical; details: for Initial activity (% of vehicle control) COX-1 (AEA): substrate 10 μM
T2 sequence (P05979 25-600): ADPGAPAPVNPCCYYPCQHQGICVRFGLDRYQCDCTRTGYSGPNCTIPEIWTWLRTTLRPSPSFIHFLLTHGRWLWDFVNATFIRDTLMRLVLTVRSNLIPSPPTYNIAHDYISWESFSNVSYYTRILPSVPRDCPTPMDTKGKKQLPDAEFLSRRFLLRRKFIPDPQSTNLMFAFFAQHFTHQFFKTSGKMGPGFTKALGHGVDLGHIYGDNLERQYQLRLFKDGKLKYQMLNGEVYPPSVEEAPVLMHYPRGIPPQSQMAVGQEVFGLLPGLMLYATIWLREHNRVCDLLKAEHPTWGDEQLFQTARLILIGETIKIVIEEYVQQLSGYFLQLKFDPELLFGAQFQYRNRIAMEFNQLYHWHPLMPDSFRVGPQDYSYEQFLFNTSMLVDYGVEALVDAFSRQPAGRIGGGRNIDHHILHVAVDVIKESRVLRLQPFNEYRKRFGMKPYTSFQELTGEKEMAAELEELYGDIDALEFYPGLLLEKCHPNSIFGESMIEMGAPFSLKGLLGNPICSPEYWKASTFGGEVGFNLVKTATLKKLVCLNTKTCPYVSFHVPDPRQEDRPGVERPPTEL

human recombinant COX-2 = biological target: T3, human recombinant COX-2 (Homo sapiens, UniProt P35354); test: COX oxygen electrode assay, COX-2; assay type: biochemical; details: for Initial activity (% of vehicle control) COX-2 (AEA) / Initial activity (% of vehicle control) COX-2 (AA): vehicle EtOH; for Initial activity (% of vehicle control) COX-2 (AEA): substrate AEA 10 μM; for Initial activity (% of vehicle control) COX-2 (AA): substrate AA 10 μM
T3 sequence (P35354 18-604): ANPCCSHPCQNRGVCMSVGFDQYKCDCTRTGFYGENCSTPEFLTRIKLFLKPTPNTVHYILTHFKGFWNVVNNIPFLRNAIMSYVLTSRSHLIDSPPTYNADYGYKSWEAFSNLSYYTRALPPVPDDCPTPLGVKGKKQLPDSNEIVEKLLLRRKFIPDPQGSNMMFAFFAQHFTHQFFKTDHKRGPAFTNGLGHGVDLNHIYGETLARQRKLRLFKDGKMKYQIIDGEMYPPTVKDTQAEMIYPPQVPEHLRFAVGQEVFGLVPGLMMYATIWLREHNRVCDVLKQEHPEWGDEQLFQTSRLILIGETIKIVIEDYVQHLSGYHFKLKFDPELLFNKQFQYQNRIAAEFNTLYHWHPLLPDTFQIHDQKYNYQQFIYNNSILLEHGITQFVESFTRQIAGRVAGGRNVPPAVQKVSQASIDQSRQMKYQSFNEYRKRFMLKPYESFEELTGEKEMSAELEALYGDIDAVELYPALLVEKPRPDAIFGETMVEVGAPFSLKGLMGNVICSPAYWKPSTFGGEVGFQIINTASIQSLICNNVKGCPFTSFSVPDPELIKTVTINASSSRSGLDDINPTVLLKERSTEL

[4] = test system: acetic acid-induced abdominal stretching (visceral nociception); test: Acetic acid-induced abdominal stretching test; assay type: in vivo; details: mice, 30 mg/kg s.c., 30 min before acetic acid
[5] = test system: acetic acid-induced abdominal stretching; details: mice, 10 and 30 mg/kg s.c.; cited from earlier work
[6] = cited from earlier work
[7] = read-out: inhibition of the cyclooxygenation of AA by COX-2

Structure (SMILES): CC(=O)Nc1ccc(OC(=O)C(C)c2ccc(Nc3ccnc(C(F)(F)F)c3)cc2)cc1 (centres unmarked) [4-acetamidophenyl 2-(4-(2-(trifluoromethyl)pyridin-4-ylamino)phenyl)propanoate, reference compound]
- IC50 (FAAH [1]; read-out: IC50 FAAH): 0.1 µM
- inhibition of COX isoforms (COX isoform): did not inhibit either COX isoform

Structure (SMILES): CC(C)Cc1ccc(C(C)C(=O)O)cc1 (centres unmarked) [Compound 1, Ibuprofen, reference compound]
- activity in the acetic acid-induced abdominal stretching test [2]: significantly less effective than 20 mg/kg of 2

Structure (SMILES): Cc1cccnc1NC(=O)C(C)c1ccc(CC(C)C)cc1 (centres unmarked) [Compound 2, N-(3-methylpyridin-2-yl)-2-(4′-isobutylphenyl)propionamide]
- fold more potent than 1 as an FAAH inhibitor (FAAH [3]): approximately 250 fold
- FAAH/COX-1 potency ratio, ratio for 1 set to unity (FAAH [3]; higher number = increased FAAH inhibitory potency relative to COX-1 potency): ~ 500
- Max inhibition % (FAAH [3]; solvent DMSO): 100%
- Max inhibition % (FAAH [3]; solvent EtOH): 100%
- COX isoform selectivity with AA as substrate (ovine COX-1; AA as substrate, COX-1 vs COX-2): COX-1 selective
- IC50 (ovine COX-1; IC50 COX-1 (approximate), AA 10 μM as substrate, DMSO as vehicle): ~240 µM
- IC50 (ovine COX-1; IC50 COX-1 (approximate), AA 10 μM as substrate, ethanol as vehicle): ~60 µM
- Initial activity (% of vehicle control) COX-1 (AEA) (ovine COX-1; vehicle DMSO, compound 20 μM): 106±15 (3) % of vehicle control
- Initial activity (% of vehicle control) COX-1 (AEA) (ovine COX-1; vehicle DMSO, compound 50 μM): 82±4 (6) % of vehicle control
- Initial activity (% of vehicle control) COX-1 (AEA) (ovine COX-1; vehicle DMSO, compound 100 μM): 63±6 (6) % of vehicle control
- Initial activity (% of vehicle control) COX-1 (AEA) (ovine COX-1; vehicle DMSO, compound 200 μM): 59±8 (6) % of vehicle control
- Initial activity (% of vehicle control) COX-1 (AEA) (ovine COX-1; vehicle DMSO, compound 400 μM): 36±0.9 (3) % of vehicle control
- Initial activity (% of vehicle control) COX-1 (AEA) (ovine COX-1; vehicle EtOH, compound 20 μM): 70±6 (3) % of vehicle control
- Initial activity (% of vehicle control) COX-1 (AEA) (ovine COX-1; vehicle EtOH, compound 50 μM): 57±0.6 (3) % of vehicle control
- Initial activity (% of vehicle control) COX-1 (AEA) (ovine COX-1; vehicle EtOH, compound 100 μM): 45±8 (3) % of vehicle control
- Initial activity (% of vehicle control) COX-1 (AEA) (ovine COX-1; vehicle EtOH, compound 200 μM): 14±4 (3) % of vehicle control
- IC50 (human recombinant COX-2): ~19 µM
- inhibition at 300 µM (human recombinant COX-2; [7]): 41%
- Initial activity (% of vehicle control) COX-2 (AEA) (human recombinant COX-2; compound 3 μM): 111±15 (6) % of vehicle control
- Initial activity (% of vehicle control) COX-2 (AEA) (human recombinant COX-2; compound 10 μM): 77±10 (3) % of vehicle control
- Initial activity (% of vehicle control) COX-2 (AEA) (human recombinant COX-2; compound 20 μM): 51±17 (3) % of vehicle control
- Initial activity (% of vehicle control) COX-2 (AEA) (human recombinant COX-2; compound 50 μM): 0.7±9 (4) % of vehicle control
- Initial activity (% of vehicle control) COX-2 (AA) (human recombinant COX-2; compound 100 μM): 88±8 (3) % of vehicle control
- Initial activity (% of vehicle control) COX-2 (AA) (human recombinant COX-2; compound 300 μM): 59±4 (4) % of vehicle control
- number of abdominal stretches elicited by acetic acid [4]: active in vivo; also recorded: decreased the number of abdominal stretches
- mode of inhibition of FAAH (FAAH [1]): acts non-competitively
- orders of magnitude more potent as an inhibitor of FAAH than ibuprofen (FAAH [1]): 2–3 orders of magnitude
- activity in the acetic acid-induced abdominal stretching test ([2]; 20 mg/kg): has analgesic activity; also recorded: significantly greater reduction in stretching than the same dose of 1
- activity in the acetic acid-induced abdominal stretching test [5]: has analgesic activity; also recorded: greater than for a dose of 10 mg/kg s.c. and for 30 mg/kg of diclofenac
- acute ulcerogenesis [6]: much lower than seen with 1

Structure (SMILES): Cc1cccnc1OC(=O)C(C)c1ccc(CC(C)C)cc1 (centres unmarked) [Compound 3, 3-methylpyridin-2-yl 2-(4-isobutylphenyl)propanoate]
- Max inhibition % (FAAH [3]; solvent EtOH): 100%

Structure (SMILES): Cc1cccnc1NC(=O)CNC(=O)C(C)c1ccc(CC(C)C)cc1 (centres unmarked) [Compound 9, 2-(4-Isobutylphenyl)-N-(2-(3-methylpyridin-2-ylamino)-2-oxoethyl)propanamide]
- IC50 (ovine COX-1): ~50 µM
- Initial activity (% of vehicle control) COX-1 (AEA) (ovine COX-1; vehicle EtOH, compound 20 μM): 76±8 (3) % of vehicle control
- Initial activity (% of vehicle control) COX-1 (AEA) (ovine COX-1; vehicle EtOH, compound 50 μM): 56±4 (3) % of vehicle control
- Initial activity (% of vehicle control) COX-1 (AEA) (ovine COX-1; vehicle EtOH, compound 100 μM): 23±4 (3) % of vehicle control
- IC50 (human recombinant COX-2): ~10 µM
- inhibition at 100 µM (human recombinant COX-2; [7]): 18%
- Initial activity (% of vehicle control) COX-2 (AEA) (human recombinant COX-2; compound 3 μM): 83±8 (3) % of vehicle control
- Initial activity (% of vehicle control) COX-2 (AEA) (human recombinant COX-2; compound 50 μM): −11±4 (3) % of vehicle control
- Initial activity (% of vehicle control) COX-2 (AA) (human recombinant COX-2; compound 100 μM): 82±5 (4) % of vehicle control

Structure (SMILES): Cc1cccc(NC(=O)CNC(=O)C(C)c2ccc(CC(C)C)cc2)n1 (centres unmarked) [Compound 10, 2-(4-Isobutylphenyl)-N-(2-(6-methylpyridin-2-ylamino)-2-oxoethyl)propanamide]
- Max inhibition % (FAAH [3]; solvent EtOH): 100%

Structure (SMILES): Cc1cccnc1NC(=O)CCNC(=O)C(C)c1ccc(CC(C)C)cc1 (centres unmarked) [Compound 11, 2-(4-Isobutylphenyl)-N-(3-(3-methylpyridin-2-ylamino)-3-oxopropyl)propanamide]
- Max inhibition % (FAAH [3]; solvent DMSO): 90±3%

Structure (SMILES): CC(C)Cc1ccc(C(C)C(=O)NCC(=O)NCc2ccccn2)cc1 (centres unmarked) [Compound 12, 2-(4-Isobutylphenyl)-N-(2-oxo-2-(pyridin-2-ylmethylamino)ethyl)propanamide]
- Max inhibition % (FAAH [3]; solvent DMSO): 100%

Structure (SMILES): CC(C)Cc1ccc(C(C)C(=O)NCC(=O)NCc2cccnc2)cc1 (centres unmarked) [Compound 13, 2-(4-Isobutylphenyl)-N-(2-oxo-2-(pyridin-3-ylmethylamino)ethyl)propanamide]
- Max inhibition % (FAAH [3]; solvent DMSO): 81±8%
